This is an account of results in patent EP4168403B1 (priority 2020, dated 2021).

As usually defined, the IC50 is the concentration needed to halve the response being measured.

Assay [1] can be described thus: Oxygen Radical Absorbance Capacity (ORAC-FL) assay. The following applies: Trolox equivalents (µmol of Trolox equivalent/µmol of compound). As to the method:
The radical scavenging capacity of the TFAHs was determined by the ORAC-FL method using fluorescein as a fluorescent probe^33,34. (±)-6-Hydroxy-2,5,7,8-tetramethylchromane-2-carboxylic acid (Trolox), fluorescein (FL) and 2,2'-azobis(amidinopropane) dihydrochloride (AAPH) were purchased from Sigma-Aldrich. A Varioskan Flash plate reader with built-in injectors (Thermo Scientific) was used. The reaction was carried out at 37 °C in 75 mM phosphate buffer (pH= 7.4), and the final volume reaction mixture was 200 µL. The tested compounds and Trolox standard were dissolved in DMSO to 10 mM and further diluted in 75 mM phosphate buffer (pH= 7.4). The final concentrations were 0.1-1 µM for the tested compounds and 1-8 µM for Trolox standard. The blank was composed of 120 µL of FL, 60 µL of AAPH and 20 µL of phosphate buffer (pH=7.4) and was added in each assay.
The net AUC corresponding to a sample was calculated as follows: Net AUC = AUCantioxidant −AUCblank . [formula]
Regression equations were calculated by plotting the net AUC against the antioxidant concentration. The ORAC value was obtained by dividing the slope of the latter curve between the slope of the Trolox curve obtained in the same assay. Final ORAC values were expressed as µmol of Trolox equivalent/µmol of TFAH.

The subject of assay [2] is voltage-gated Ca^2+ channels (VGCC). Briefly: Calcium channel antagonist assay (K+-evoked cytosolic Ca2+, Fluo-4). The assay is classed as cell-based. The following applies: SH-SY5Y cells, K+ 70 mM, mean ± SEM, read-out: IC50 (µM) Calcium channels blockade. As to the method:
The cytosolic Ca^2+ has been measured in SH-SY5Y cells. SH-SY5Y cells were maintained similarly to what was previously described^30. Free cytosolic Ca^2+ was measured using the fluorescent Ca^2+ indicator Fluo-4/AM (Fluo-4 acetomethoxyester). SH-SY5Y cells were seeded onto 96-well black plates at a density of 10^5 cells per well, achieving confluence after 48 h. Cells were washed with Krebs-Hepes solution (KH, in mM: 144 NaCl, 5.9 KCl, 1.2 MgCl2, 2 CaCl2, 11 D-glucose, 10 HEPES, pH 7.4). Cells were loaded with 10 µM Fluo-4/AM and 0.2% pluronic acid in KH and incubated for 45 min at 37 °C in the dark. Then, cells were washed twice with KH to remove the excess of probe. Tested compounds were incubated 10 min before K+ 70 mM was applied to evoke the increment of cytosolic Ca^2+. To normalize Fluo-4 signals, Triton X-100 (5%) and 1 M MnCl2 were applied to register both maximal and minimal fluorescence, respectively. The experiments were analyzed at excitation and emission wavelengths of 485 and 520 nm, respectively, and fluorescence was measured in a fluorescence microplate reader (FLUOstar Optima, BMG, Germany). Data were calculated as a percentage of Fmax - Fmin.
The blocking effect of the depolarization-induced Ca^2+ uptake was investigated in SH-SY5Y neuroblastoma cells stimulated with an extracellular concentration of K+ 70 mM, which induces the cell Ca^2+ levels elevation by opening voltage-gated Ca^2+ channels (VGCC), monitored with the Ca^2+-sensitive fluorescent dye Fluo-4. Nifedipine was used as positive standard.

Assay [3] deals with T1, human recombinant butyrylcholinesterase (hBuChE; EC 3.1.1.8) (Homo sapiens, UniProt P06276).
T1 construct: purchased Sigma-Aldrich (Prague, Czech Republic)
Briefly: Cholinesterase inhibition in vitro assay (modified Ellman's method), BuChE. The following applies: pH 7.4, 37 °C, mean ± SEM, read-out: BChE (IC50 µM). The class given is biochemical. The method, then:
The AChE and BuChE inhibitory activity of the tested compounds was determined using a modified Ellman's method^31, 32.Human red-blood cell acetylcholinesterase (hAChE; EC 3.1.1.7), and human recombinant butyrylcholinesterase (hBuChE; EC 3.1.1.8), 5,5'-dithiobis(2-nitrobenzoic acid) (Ellman's reagent, DTNB), phosphate buffer (PB, pH 7.4), acetylthiocholine (ATC), and butyrylthiocholine (BTC), were purchased from Sigma-Aldrich (Prague, Czech Republic). Nunc polystyrene 96-well microplates with flat-bottom shape (ThermoFisher Scientific, USA) were used for the measurement and all the assay were carried out in 0.1 M KH2PO4/K2HPO4 buffer, pH 7.4. Enzyme solution was prepared at activity 2.0 units/mL in 2 mL aliquots. The assay mixture (100 µL) consisted of 40 µL of 0.1 M phosphate buffer (pH 7.4), 20 µL of 0.01 M DTNB, 10 µL of enzyme, and 20 µL of 0.01 M substrate (ATC iodide solution). Tested compounds were dissolved first in methanol (BIGI 23 in DMSO) and then further diluted by assay buffer to the final concentration. […]. […] Enzyme with the inhibitor was preincubated for 5 min in the assay mixture and then the reaction was started by addition of 20 µL of substrate (ATC for AChE, BTC for BuChE). The enzyme activity was determined by measuring the increase in absorbance at 412 nm at 37 °C at 2 min intervals using a Multi-mode microplate reader Synergy 2 (Vermont, USA). Each concentration was assayed in triplicate. The obtained data were used to compute the percentage inhibition (I; Equation 1): I = 1−(ΔAi)/(ΔA0) [%] [formula] ΔAi indicates the absorbance change provided by cholinesterase exposed to AChE inhibitors and ΔA0 indicates absorbance change caused by intact cholinesterase (phosphate buffer was used instead of AChE inhibitor solution). […] Calculations were performed using software Microsoft Excel (Redmont, WA, USA) and GraphPad Prism version 5.02 for Windows, GraphPad Software, San Diego, CA, USA.
Background: In Ellman's method for cholinesterases, released thiocholine reacts with DTNB.

The target in assay [4] is T2, Human red-blood cell acetylcholinesterase (hAChE; EC 3.1.1.7) (Homo sapiens, UniProt P22303).
T2 construct: Human red-blood cell acetylcholinesterase; purchased Sigma-Aldrich (Prague, Czech Republic); host or cells: human red blood cells
The assay is described as follows: biochemical. The following applies: pH 7.4, 37 °C, mean ± SEM, read-out: AChE (IC50 µM). The method, then:
The AChE and BuChE inhibitory activity of the tested compounds was determined using a modified Ellman's method^31, 32.Human red-blood cell acetylcholinesterase (hAChE; EC 3.1.1.7), and human recombinant butyrylcholinesterase (hBuChE; EC 3.1.1.8), 5,5'-dithiobis(2-nitrobenzoic acid) (Ellman's reagent, DTNB), phosphate buffer (PB, pH 7.4), acetylthiocholine (ATC), and butyrylthiocholine (BTC), were purchased from Sigma-Aldrich (Prague, Czech Republic). Nunc polystyrene 96-well microplates with flat-bottom shape (ThermoFisher Scientific, USA) were used for the measurement and all the assay were carried out in 0.1 M KH2PO4/K2HPO4 buffer, pH 7.4. Enzyme solution was prepared at activity 2.0 units/mL in 2 mL aliquots. The assay mixture (100 µL) consisted of 40 µL of 0.1 M phosphate buffer (pH 7.4), 20 µL of 0.01 M DTNB, 10 µL of enzyme, and 20 µL of 0.01 M substrate (ATC iodide solution). Tested compounds were dissolved first in methanol (BIGI 23 in DMSO) and then further diluted by assay buffer to the final concentration. […] Enzyme with the inhibitor was preincubated for 5 min in the assay mixture and then the reaction was started by addition of 20 µL of substrate (ATC for AChE, BTC for BuChE). […] Each concentration was assayed in triplicate. The obtained data were used to compute the percentage inhibition (I; Equation 1): I = 1−(ΔAi)/(ΔA0) [%] [formula] ΔAi indicates the absorbance change provided by cholinesterase exposed to AChE inhibitors and ΔA0 indicates absorbance change caused by intact cholinesterase (phosphate buffer was used instead of AChE inhibitor solution).

Another assay deals with mice. The assay is described as follows: Object Recognition task (ORT), scopolamine-induced memory impairment. The assay is classed as in vivo. The following applies: 1 mg/kg intraperitoneally with scopolamine 0.5 mg/kg. The method, then: For behavioural studies, 50 swiss female 10-week-old weighing 25-30 g were used. Memory impairment was induced by the potent antimuscarinic drug scopolamine hydrobromide (0.5 mg/kg, Sigma) dissolved in saline buffer. To explore the potential of BIGI-3h as a cognitive enhancer, the compound was administered at a dose of 1 mg/kg and 10 mg/kg. For comparison, the antiamnesic effect of donepezil was tested (Tocris Bioscience, R&D Systems Inc.) at a dose of 1 mg/kg. Both products, 3h and donepezil, were dissolved in saline buffer containing 3.6% dimethyl sulfoxide. All drug solutions were independently prepared immediately before their use and were administered intraperitoneally in 10 mL/kg of vehicle volume. Different batches of mice were used for each experiment. The animals were distributed into 5 experimental groups (I-V): control groups (I) mice administered 3.6% DMSO in saline buffer, labelled as "control vehicle"; experimental groups (II-V) consisted of (II) mice administered scopolamine dissolved in 3.6% DMSO in saline buffer, labelled as "scop/DMSO," (III) mice co-administered scopolamine plus Donepezil, labelled as "Scopo/donep," (IV) and (V) mice co-administrated scopolamine plus BIGI-3h at 1mg/Kg and 10mg/Kg labelled respectively "Scopo/3h 1" "Scopo/3h 10".
Spontaneous object recognition was tested as described previously, 28 with slight modifications. All behavioural experiments took place during the light phase of the 12-h light/ dark cycle between 10 am and 3 pm to minimize the influence of circadian rhythm, and they were conducted with the investigators blind to treatments. […] The total time spent in active exploration of each object during T1 and T2 was determined with a computerized tracking system and image analyzer (Ethovision XT, Noldus Information Technology) that tracked the nose, centre and tail points of each mouse^45. As a criterion of active object exploration, it was measured the time spent by the animal directing its nose to the object at a distance of less than 2 cm and/or touching it with the vibrissae or nose. […]

For a further assay, the target named is Tau(306-336) peptide (Homo sapiens, UniProt P10636). As to conditions: Tau(306-336) 50 µM, inhibitor 50 µM (1:1 ratio); mean ± SEM.
Sequence of Tau(306-336) peptide (P10636 623-653 limits assumed): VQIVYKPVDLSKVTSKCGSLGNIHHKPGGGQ

T1 sequence (P06276 29-602): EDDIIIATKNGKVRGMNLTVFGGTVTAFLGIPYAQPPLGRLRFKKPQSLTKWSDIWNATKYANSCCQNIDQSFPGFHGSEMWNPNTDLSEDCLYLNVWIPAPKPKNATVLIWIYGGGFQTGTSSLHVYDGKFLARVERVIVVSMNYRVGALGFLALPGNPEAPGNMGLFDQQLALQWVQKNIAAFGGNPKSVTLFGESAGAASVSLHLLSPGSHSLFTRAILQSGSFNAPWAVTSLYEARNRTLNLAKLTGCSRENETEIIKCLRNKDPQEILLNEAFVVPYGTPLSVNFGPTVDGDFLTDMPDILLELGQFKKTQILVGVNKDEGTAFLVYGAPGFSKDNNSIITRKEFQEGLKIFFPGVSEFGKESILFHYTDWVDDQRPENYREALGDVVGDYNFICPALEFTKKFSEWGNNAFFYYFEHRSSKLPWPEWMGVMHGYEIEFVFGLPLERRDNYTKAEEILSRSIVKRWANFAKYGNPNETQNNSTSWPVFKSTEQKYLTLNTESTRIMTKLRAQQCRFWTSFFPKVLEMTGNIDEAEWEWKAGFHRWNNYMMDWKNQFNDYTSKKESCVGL
T2 sequence (P22303 32-617 isoform P22303-2 limits assumed): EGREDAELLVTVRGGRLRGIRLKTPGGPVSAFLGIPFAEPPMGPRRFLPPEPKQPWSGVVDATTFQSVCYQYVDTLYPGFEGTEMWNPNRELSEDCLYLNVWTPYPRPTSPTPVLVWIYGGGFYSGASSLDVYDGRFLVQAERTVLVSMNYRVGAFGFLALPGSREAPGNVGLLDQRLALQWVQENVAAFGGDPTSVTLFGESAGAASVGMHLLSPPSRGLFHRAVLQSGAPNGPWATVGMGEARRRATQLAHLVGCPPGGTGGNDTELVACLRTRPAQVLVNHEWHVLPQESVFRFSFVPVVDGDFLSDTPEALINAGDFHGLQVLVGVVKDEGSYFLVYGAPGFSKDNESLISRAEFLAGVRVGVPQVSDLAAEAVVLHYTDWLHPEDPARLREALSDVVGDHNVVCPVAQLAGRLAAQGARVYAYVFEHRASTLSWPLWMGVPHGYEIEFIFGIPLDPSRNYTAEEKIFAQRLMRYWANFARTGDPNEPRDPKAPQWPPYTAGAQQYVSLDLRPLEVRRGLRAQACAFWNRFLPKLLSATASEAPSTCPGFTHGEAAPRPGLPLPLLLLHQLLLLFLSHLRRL
Method for Tau(306-336) peptide: Subsequently, the sample was aliquoted dried and stored at -20 °C.
Fluorescence data were recorded every 10 min overnight with 1 min shaking at 800 rpm prior to each reading. Each inhibitor was assayed in triplicates in at least two independent experiments. […] Inhibition % are expressed as the mean ± SEM. […] Values were averaged and the presented values are expressed as the mean ± SEM.
Fluorescence data were recorded every 10 min overnight with 1 min shaking at 800 rpm prior to each reading.

As for `CCOC(=O)C1=C(C)N(CCCC2CCN(Cc3ccccc3)CC2)C(=O)NC1c1coc2ccc(C(C)C)cc2c1=O` (stereo not drawn) [BIGI-3n, ethyl 1-(3-(1-benzylpiperidin-4-yl)propyl)-4-(6-isopropyl-4-oxo-4H-chromen-3-yl)-6-methyl-2-oxo-1,2,3,4-tetrahydropyrimidine-5-carboxylate], in assay [1], the ORAC was determined as 2.45± 0.04 TE. The values for the IC50 in assay [2], in assay [3] and in assay [4] were 1.7 ± 0.4 µM, 4.35 ± 0.23 µM and 0.58 ± 0.02 µM, respectively.
Regarding `COc1cc2c(cc1OC)C(=O)C(CC1CCN(Cc3ccccc3)CC1)C2` (stereo not drawn) [donepezil, reference compound], the “recognition index / discrimination index (Figure 5)” value in the assay with mice is recorded as “reversed the short-term memory impairment induced by scopolamine”.
Consider `Nc1c2c(nc3ccccc13)CCCC2` [tacrine, reference compound], for which the “Inhibition of T (306-336) peptide self - aggregation (%)” value at Tau(306-336) peptide is recorded as “not able to significantly interfere”.
